In brackets after ≈: the same amount, converted by molar mass. Non-standard residues stand in square brackets, D forms with d. Residues, ends and D or L forms follow the SMILES beside them. ξ: configuration not given here. *: point of attachment. X3 = CC(=O)N[C@H]1[C@H]([C@H](OCCCCCN*)[C@H](O)CO)OC(C(=O)O)=C[C@@H]1NC(=N)N; X4 = CC(=O)N[C@H]1[C@H]([C@H](OCCCCCN*)[C@H](O)CO)OC(C(=O)O)=C[C@@H]1N=C(N)N; X1 = CC(=O)N[C@H]1[C@H]([C@H](OCCN*)[C@H](O)CO)OC(C(=O)O)=C[C@@H]1NC(=N)N; X2 = CC(=O)N[C@H]1[C@H]([C@H](OCCN*)[C@H](O)CO)OC(C(=O)O)=C[C@@H]1N=C(N)N; ξE = NC(CCC(=O)O)C(=O)O; NHBn = c1ccc(CN*)cc1; NHPentyl = CCCCCN*
Key:
Influenza A virus [1] = test: Inhibitory concentration by Plaque reduction assay; type: functional, organism-based
Influenza A virus [2] = test: Inhibitory concentration by Sialidase inhibitory assay; type: functional, organism-based
Mus musculus [3] = organism: Mus musculus; test: Number of survivors out of 7 tested mice at 10 days after infection with influenza A/PR/8/34 (H1N1) virus; type: functional
Mus musculus [4] = organism: Mus musculus; test: Number of survivors out of 7 tested mice at 20 days after infection with influenza A/PR/8/34 (H1N1) virus; type: functional
Mus musculus [5] = organism: Mus musculus; test: Number of survivors out of 8 tested mice at 10 days after infection with influenza A/PR/8/34 (H1N1) virus; type: functional
Mus musculus [6] = organism: Mus musculus; test: Number of survivors out of 8 tested mice at 20 days after infection, with influenza A/PR/8/34 (H1N1) virus; type: functional

## CC(=O)N[C@H]1[C@H]([C@H](OCCCCCCCCCCNC(=O)CCC(N)C(=O)N[C@@H](CCC(N)=O)C(=O)N[C@@H](CCC(N)=O)C(=O)N[C@@H](CCC(N)=O)C(=O)CN[C@@H](CCC(N)=O)C(=O)N[C@@H](CCC(N)=O)C(=O)N[C@@H](CCC(N)=O)C(=O)N[C@@H](CCC(N)=O)C(=O)N[C@@H](CCC(N)=O)C(=O)N[C@@H](CCC(N)=O)C(=O)N[C@@H](CCC(N)=O)C(N)=O)[C@H](O)CO)OC(C(=O)O)=C[C@@H]1NC(=N)N (some centres undefined)
Influenza A virus [1]
  IC50: 2.1 ng/mL (≈ 1.1 nM)
Influenza A virus [2]
  IC50: 62 ng/mL (≈ 32.4 nM)

## CC(=O)N[C@H]1[C@H]([C@H](OCCCCCNC(=O)CCC(N)C(=O)N[C@@H](CCC(N)=O)C(=O)N[C@@H](CCC(N)=O)C(=O)N[C@@H](CCC(N)=O)C(=O)CN[C@@H](CCC(N)=O)C(=O)N[C@@H](CCC(N)=O)C(=O)N[C@@H](CCC(N)=O)C(=O)N[C@@H](CCC(N)=O)C(=O)N[C@@H](CCC(N)=O)C(=O)N[C@@H](CCC(N)=O)C(=O)N[C@@H](CCC(N)=O)C(N)=O)[C@H](O)CO)OC(C(=O)O)=C[C@@H]1NC(=N)N (some centres undefined)
Influenza A virus [1]
  IC50: 0.072 ng/mL (≈ 0.0391 nM)
Mus musculus [3]
  Survival rate: 7
Mus musculus [4]
  Survival rate: 7
Influenza A virus [2]
  IC50: 161 ng/mL (≈ 87.5 nM)

## CCCCCNC(=O)CC[C@H](NC(=O)[C@@H](N)CCC(=O)NCCCCC)C(=O)N[C@@H](CCC(=O)NCCCCCO[C@@H]([C@@H]1OC(C(=O)O)=C[C@H](N=C(N)N)[C@H]1NC(C)=O)[C@H](O)CO)C(=O)N[C@@H](CCC(N)=O)C(=O)N[C@@H](CCC(N)=O)C(=O)N[C@@H](CCC(N)=O)C(=O)N[C@@H](CCC(N)=O)C(=O)N[C@@H](CCC(N)=O)C(=O)N[C@@H](CCC(N)=O)C(=O)N[C@@H](CCC(N)=O)C(=O)N[C@@H](CCC(N)=O)C(N)=O (H-E(NHPentyl)E(NHPentyl)E(X4)QQQQQQQQ-NH2)
Influenza A virus [1]
  IC50: 0.32 ng/mL (≈ 0.163 nM)
Influenza A virus [2]
  IC50: 113 ng/mL (≈ 57.4 nM)

## CC(=O)NCCO[C@@H]([C@@H]1OC(C(=O)O)=C[C@H](N=C(N)N)[C@H]1NC(C)=O)[C@H](O)CO
Influenza A virus [1]
  IC50: 5.5 ng/mL (≈ 13.2 nM)
Influenza A virus [2]
  IC50: 22 ng/mL (≈ 52.7 nM)

## CC(=O)NCCCCCO[C@@H]([C@@H]1OC(C(=O)O)=C[C@H](N=C(N)N)[C@H]1NC(C)=O)[C@H](O)CO
Influenza A virus [1]
  IC50: 5.9 ng/mL (≈ 12.8 nM)
Influenza A virus [2]
  IC50: 90 ng/mL (≈ 196 nM)

## CC(=O)N[C@H]1[C@H]([C@H](OCCNC(=O)CCC(N)C(=O)N[C@@H](CCC(N)=O)C(=O)N[C@@H](CCC(N)=O)C(=O)N[C@@H](CCC(N)=O)C(N)=O)[C@H](O)CO)OC(C(=O)O)=C[C@@H]1NC(=N)N (some centres undefined) (H-[ξE](X1)QQQ-NH2)
Influenza A virus [1]
  IC50: 0.17 ng/mL (≈ 0.191 nM)
Influenza A virus [2]
  IC50: 364 ng/mL (≈ 410 nM)

## CCCCCNC(=O)CC[C@H](NC(=O)[C@H](CCC(=O)NCCCCC)NC(=O)[C@H](CCC(=O)NCCCCC)NC(=O)[C@@H](N)CCC(=O)NCCCCC)C(=O)N[C@@H](CCC(=O)NCCO[C@@H]([C@@H]1OC(C(=O)O)=C[C@H](N=C(N)N)[C@H]1NC(C)=O)[C@H](O)CO)C(=O)N[C@@H](CCC(N)=O)C(=O)N[C@@H](CCC(N)=O)C(=O)N[C@@H](CCC(N)=O)C(=O)N[C@@H](CCC(N)=O)C(=O)N[C@@H](CCC(N)=O)C(=O)N[C@@H](CCC(N)=O)C(=O)N[C@@H](CCC(N)=O)C(N)=O (H-E(NHPentyl)E(NHPentyl)E(NHPentyl)E(NHPentyl)E(X2)QQQQQQQ-NH2)
Influenza A virus [1]
  IC50: 0.1 ng/mL (≈ 0.0456 nM)
Influenza A virus [2]
  IC50: 585 ng/mL (≈ 267 nM)

## CC(=O)N[C@H]1[C@H]([C@H](OCCNC(=O)CC[C@H](NC(=O)[C@H](CCC(=O)NCc2ccccc2)NC(=O)[C@H](CCC(=O)NCc2ccccc2)NC(=O)[C@H](CCC(=O)NCc2ccccc2)NC(=O)[C@@H](N)CCC(=O)NCc2ccccc2)C(=O)N[C@@H](CCC(N)=O)C(=O)N[C@@H](CCC(N)=O)C(=O)N[C@@H](CCC(N)=O)C(=O)N[C@@H](CCC(N)=O)C(=O)N[C@@H](CCC(N)=O)C(=O)N[C@@H](CCC(N)=O)C(=O)N[C@@H](CCC(N)=O)C(N)=O)[C@H](O)CO)OC(C(=O)O)=C[C@@H]1NC(=N)N (H-E(NHBn)E(NHBn)E(NHBn)E(NHBn)E(X1)QQQQQQQ-NH2)
Influenza A virus [1]
  IC50: 0.15 ng/mL (≈ 0.066 nM)
Influenza A virus [2]
  IC50: 324 ng/mL (≈ 143 nM)

## CC(=O)N[C@H]1[C@H]([C@H](O)[C@H](O)CO)OC(C(=O)O)=C[C@@H]1NC(=N)N [ZANAMIVIR]
Mus musculus [5]
  Survival rate: 1
Mus musculus [6]
  Survival rate: 0

## CC(=O)N[C@H]1[C@H]([C@H](OCCNC(=O)CCC(N)C(=O)N[C@@H](CCC(N)=O)C(=O)N[C@@H](CCC(N)=O)C(=O)N[C@@H](CCC(N)=O)C(=O)CN[C@@H](CCC(N)=O)C(=O)N[C@@H](CCC(N)=O)C(=O)N[C@@H](CCC(N)=O)C(=O)N[C@@H](CCC(N)=O)C(=O)N[C@@H](CCC(N)=O)C(=O)N[C@@H](CCC(N)=O)C(=O)N[C@@H](CCC(N)=O)C(N)=O)[C@H](O)CO)OC(C(=O)O)=C[C@@H]1NC(=N)N (some centres undefined)
Influenza A virus [1]
  IC50: 0.066 ng/mL (≈ 0.0367 nM)
Influenza A virus [2]
  IC50: 114 ng/mL (≈ 63.4 nM)

## CC(=O)N[C@H]1[C@H]([C@H](OCCCCCNC(=O)CC[C@H](NC(=O)[C@H](CCC(=O)NCc2ccccc2)NC(=O)[C@@H](N)CCC(=O)NCc2ccccc2)C(=O)N[C@@H](CCC(N)=O)C(=O)N[C@@H](CCC(N)=O)C(=O)N[C@@H](CCC(N)=O)C(=O)N[C@@H](CCC(N)=O)C(=O)N[C@@H](CCC(N)=O)C(=O)N[C@@H](CCC(N)=O)C(=O)N[C@@H](CCC(N)=O)C(=O)N[C@@H](CCC(N)=O)C(N)=O)[C@H](O)CO)OC(C(=O)O)=C[C@@H]1NC(=N)N (H-E(NHBn)E(NHBn)E(X3)QQQQQQQQ-NH2)
Influenza A virus [1]
  IC50: 0.028 ng/mL (≈ 0.014 nM)
Influenza A virus [2]
  IC50: 63 ng/mL (≈ 31.4 nM)

— ChEMBL document CHEMBL1135182, “Synthesis and anti-influenza evaluation of polyvalent sialidase inhibitors bearing 4-guanidino-Neu5Ac2en derivatives” (Bioorg Med Chem Lett, 2002)
